# Measurements: patent US11330820B2, “Pesticidally active mixtures” (BASF Agrochemical Products B.V., priority 2016, dated 2022)
# Values joined by “and” are separate entries in the source; they are usually repeats but may differ in a detail not shown here. Identical values can stand only once.
# Assays:
# Assay type in all cases: in vivo
# [1] = system: vetch aphid (Megoura viciae); experiment: Control of vetch aphid on broad bean leaf disks, contact or systemic (B.1)
# Procedure: For evaluating control of vetch aphid (Megoura viciae) through contact or systemic means the test unit consisted of 24-well-microtiter plates containing broad bean leaf disks. The compounds or mixtures were formulated using a solution containing 75% by weight water and 25% by weight DMSO. Different concentrations of formulated compounds or mixtures were sprayed onto the leaf disks at 2.5 μl, using a custom built micro atomizer, at two replications.
# (§1) For experimental mixtures in these tests identical volumes of both mixing partners at the desired concentrations respectively, were mixed together.
# After application, the leaf disks were air-dried and 5-8 adult aphids placed on the leaf disks inside the microtiter plate wells. The aphids were then allowed to suck on the treated leaf disks and incubated at 23+1° C., 50+5% RH for 5 days. Aphid mortality and fecundity was then visually assessed.
# [2] = system: green peach aphid (Myzus persicae); experiment: Control of green peach aphid through systemic means, artificial diet under membrane (B.2)
# Description: For evaluating control of green peach aphid (Myzus persicae) through systemic means the test unit consisted of 96-well-microtiter plates containing liquid artificial diet under an artificial membrane.
# The compounds or mixtures were formulated using a solution containing 75% by weight water and 25% by weight DMSO. Different concentrations of formulated compounds or mixtures were pipetted into the aphid diet, using a custom built pipetter, at two replications.
# For experimental mixtures in these tests identical volumes of both mixing partners at the desired concentrations respectively were mixed together.
# After application, 5-8 adult aphids were placed on the artificial membrane inside the microtiter plate wells. The aphids were then allowed to suck on the treated aphid diet and incubated at 23±1° C., 50±5% RH for 3 days. Aphid mortality and fecundity was then visually assessed.
# [3] = system: boll weevil (Anthonomus grandis); experiment: Control of boll weevil, insect diet with eggs (B.3)
# Procedure: For evaluating control of boll weevil (Anthonomus grandis) the test unit consisted of 24-well-microtiter plates containing an insect diet and 20-30 A. grandis eggs.
# (§2) The compounds or mixtures were formulated using a solution containing 75% by weight water and 25% by weight DMSO. Different concentrations of formulated compounds or mixtures were sprayed onto the insect diet at 20 μl, using a custom built micro atomizer, at two replications. For experimental mixtures in these tests identical volumes of both mixing partners at the desired concentrations respectively, were mixed together.
# After application, microtiter plates were incubated at 23±1° C., 50±5% RH for 5 days. Egg and larval mortality was then visually assessed.
# [4] = system: Greenhouse Whitefly (Trialeurodes vaporariorum); experiment: Control of greenhouse whitefly, egg plant leaf disk with white fly eggs (B.5)
# Procedure: as §2, with “For evaluating control of Greenhouse Whitefly (Trialeurodes vaporariorum) the test unit consisted of 96-well-microtiter plates containing a leaf disk of egg plant leaf disk with white fly eggs. The” for “The”, “2.5” for “20”
# After application, microtiter plates were incubated at 23±1° C., 65±5% RH for 6 days. Mortality of hatched crawlers was then visually assessed.
# [5] = system: tobacco budworm (Heliothis virescens); experiment: Control of tobacco budworm, insect diet with eggs (B.4)
# Procedure: For evaluating control of tobacco budworm (Heliothis virescens) the test unit consisted of 96-well-microtiter plates containing an insect diet and 15-25 H. virescens eggs.
# The compounds or mixtures were formulated using a solution containing 75% by weight water and 25% by weight DMSO. Different concentrations of formulated compounds or mixtures were sprayed onto the insect diet at 10 μl, using a custom built micro atomizer, at two replications.
# as §1
# After application, microtiter plates were incubated at 28+1° C., 80+5% RH for 5 days. Egg and larval mortality was then visually assessed.
# [6] = 0.8 ppm, aphid mortality and fecundity after 5 days
structure (smiles),measurement,setting,value
"Cn1nc(C(F)(F)C(F)(F)F)c(C(F)(F)F)c1C(=O)Nc1ccc(Cl)c(C(=O)NCc2ccccc2)c1 [II.1, N-[4-Chloro-3-[[(phenylmethyl)amino]carbonyl]phenyl]-1-methyl-3-(1,1,2,2,2-pentafluoroethyl)-4-(trifluoromethyl)-1H-pyrazole-5-carboxamide]",Average Control %,[1]; [6],0%
"CCS(=O)(=O)c1cccnc1-c1nc2cc(C(F)(F)F)cnc2n1C [II.3-1, 2-(3-ethylsulfonyl-2-pyridyl)-3-methyl-6-(trifluoromethyl)imidazo[4,5-b]pyridine]",Average Control %,"[1]; 10 ppm, after 5 days",50%
same,Average Control %,"[2]; 10 ppm, after 3 days",37.5%
same,Average Control %,"[3]; 50 ppm, egg and larval mortality after 5 days",25%
same,Average Control %,"[4]; 2 + 0 ppm, mortality of hatched crawlers after 6 days",25%
"CCN1OC[C@@H](NC(=O)c2ccc(C3=NOC(c4cc(Cl)cc(Cl)c4)(C(F)(F)F)C3)cc2C)C1=O (stereo partly drawn) [II.4-1, 4-[5-(3,5-dichlorophenyl)-5-(trifluoromethyl)-4H-isoxazol-3-yl]-N-[(4R)-2-ethyl-3-oxo-isoxazolidin-4-yl]-2-methyl-benzamide]",Average Control %,"[2]; 2 ppm, aphid mortality and fecundity after 3 days",0%
same,Average Control %,"[5]; 0.08 ppm, egg and larval mortality after 5 days",0%
"CN(C(=O)c1ccccc1)c1cccc(C(=O)Nc2c(Br)cc(C(F)(C(F)(F)F)C(F)(F)F)cc2C(F)(F)F)c1F [compound a), broflanilide]",Average Control %,"[1]; 0.08 ppm, after 5 days",0%
same,Average Control %,[1]; [6],50% and 25%
same,Average Control %,"[2]; 0.08 ppm, after 3 days",0%
same,Average Control %,"[2]; 0.8 ppm, after 3 days",25%
same,Average Control %,"[3]; 0.08 ppm, after 5 days",25%
same,Average Control %,"[5]; 0.8 ppm, after 5 days",0%
same,Average Control %,"[4]; 0 + 0.4 ppm, after 6 days",0%
